Assay results reported in US20260137698A1, “CYCLIN-DEPENDENT KINASE 7 INHIBITORS” (JOINT STOCK COMPANY «BIOCAD», priority 2022, published 2026).
Like-named read-outs stand apart in the source and are kept apart here.

What was measured:
[1] = Passive membrane permeability through PAMPA artificial membrane, pH 7.4; type: in vitro ADME; conditions: pH 7.4, 10 μmol, 20 hours at room temperature, mean of multiple measurements, read-out: PAMPA passive permeability Pe
Protocol: Passive membrane permeability of the compounds described in the present invention was determined using the PAMPA (parallel artificial membrane permeability assay) model at pH 7.4.
We used a 96-well plate (Corning® BioCoat® Pre-coated PAMPA Plate System, order no. 353015), composed of acceptor and donor parts with cell membrane-modeling PVDF filter pre-impregnated with a lecithin-phospholipid bilayer. The substance (at a concentration of 10 μmol) in a 0.01 M phosphate buffer with pH 7.4 was introduced into a donor well of the plate, and pure buffer was introduced into an acceptor well; afterwards, the both parts were combined and incubated for 20 hours at room temperature so that the compound was redistributed between the two wells and the membrane. Verapamil (USP, USA, order no. 1711202) and propranolol (MCE LLC, USA, cat. no. HY-B0573/CS-2680) were used as control compounds with high and medium permeability. Samples were analyzed by reversed-phase HPLC with UV detection (Agilent 1260 chromatograph with UV detector) by determining their peak areas in the donor and acceptor wells.
Permeability (Pe, cm/s) and retention factor (R, %) in the lipid bilayer were calculated using the formula:
[formula] [formula] • Co is donor-well concentration of the substance at the initial moment of time t (μM); • CA (t) is acceptor-well concentration of the substance at time t (μM); • Vd is donor-well volume (0.3 ml); • Va is acceptor-well volume (0.15 ml).
[formula] • A is filter area (0.3 cm^2); • t is incubation time (72000 s);

[2] = system: NCl-H82 (small cell lung cancer); test: Antiproliferative assay on NCl-H82 cells (AlamarBlue, 120 h); type: cell-based; conditions: mean value from several measurements
Protocol: The antiproliferative activity of CDK7 inhibitors according to the present invention was evaluated in a cell test using continuous cell cultures: MDA-MB-468 (triple negative breast cancer, ATCC® HTB-132™) and NCl-H82 (small cell lung cancer, ATCC® HTB-175™) using a viable AlamarBlue dye (Thermo Fisher Scientific Inc, order no. DAL1100). The cells were grown in DMEM (PanEco, order no. C330π) and RPMI-1640 (PanEco, order no. C330π), respectively. The basal growth medium was enriched with L-glutamine at a concentration of 2 mM (PanEco, order no. Φ032) and 10% fetal bovine serum (Gibco, order no. 16140-071). The night before measurement, MDA-MB-468 adherent cells were detached from plastic with a solution of trypsin-EDTA (PanEco, order no. Π039π), the solution was then inactivated by a DMEM complete medium, centrifuged at 1000 RPM (Eppendorf, 5804 R), a suspension of cells was prepared in a DMEM complete medium, introduced into 96-well culture plates (Corning Inc, order no. 3599) at 8×10^3 cells in 100 μl of medium per well. The next day, test compounds were dissolved in DMSO and diluted with a DMEM complete medium to a final concentration ranging from 50 μM to 10 pM. Diluted compounds in a volume of 50 μl were introduced into the plate wells with cells in triplicates (the final concentration of DMSO was no more than 1%) and incubated at 37° C. in an incubator with 5% CO2 for 96 hours. NCl-H82 suspension cell line was prepared on the day of the analysis. 10×10^3 cells in 100 μl of an RPMI-1640 complete medium were added to each well of a 96-well plate. The procedure for sample dilution is as described above. Cells with test compounds were incubated at 37° C. in an incubator with 5% CO2 for 120 hours. Following incubation, […] of AlamarBlue reagent (Thermo Fisher Scientific Inc., order no. DAL1100) was added to the wells, the contents of the plates were stirred in an orbital shaker (Biosan, Latvia), then further incubated for 5.5-6 hours at 37° C. in an incubator with 5% CO2. The number of viable cells was detected using the Infinite M200Pro microplate spectrophotometer (Tecan Group Ltd, Switzerland) by way of measuring a fluorescent signal at an excitation wavelength (λEx) of 540 nm and an emission wavelength (λEm) of 590 nm.
IC50 value was calculated using the Magellan software (Tecan Group Ltd, Switzerland) by approximating experimental points by four-parameter model with the optimization by Levenberg-Marquardt: […]

CDK9/Cyclin K = CDK9/Cyclin K (Homo sapiens, UniProt P50750); test: Inhibition of CDK9/Cyclin K kinase activity (ADP-Glo); type: biochemical
Procedure, shortened: (§1)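 Kinase preincubated with compound (11 points, 4-fold steps from 50 μM) for 10 minutes at 25° C. in kinase buffer A with DTT, then reacted 40-60 minutes at 25° C. with ATP and CDKtide, Histone H1 or PDKtide substrate. ADP formation read by ADP-Glo luminescence; IC50 from four-parameter fit.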

CDK7/Cyclin H/MNAT1 = CDK7/Cyclin H/MNAT1 (Homo sapiens, UniProt P50613); test: Inhibition of CDK7/Cyclin H/MNAT1 kinase activity (ADP-Glo); type: biochemical
Procedure, shortened: as §1

[3] = system: MDA-MB-468 (triple negative breast cancer); test: Antiproliferative assay on MDA-MB-468 cells (AlamarBlue, 96 h); type: cell-based; conditions: Homo sapiens, mean value from several measurements
CDK2/Cyclin A = CDK2/Cyclin A (Homo sapiens, UniProt P24941); test: Inhibition of CDK2/Cyclin A kinase activity (ADP-Glo); type: biochemical
Procedure, shortened: as §1

[4] = General cytotoxicity on primary differentiated HepaRG cells (72 h); type: cell-based; conditions: human, general toxicity, mean value from several measurements
Procedure, shortened: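 Differentiated HepaRG cells, maintained a week in basal hepatic medium with maintenance/metabolism supplement, were plated at 25×10^3 cells/well overnight. Compounds (200 μM to 0.2 nM) were added for 72 h before viability readout.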

[5] = mean value from several measurements, read-out: IC50 CDK9/Cyclin K
[6] = mean value from several measurements, read-out: IC50 CDK7/Cyclin H/MNAT
[7] = mean value from several measurements, read-out: IC50 CDK2/Cyclin A

Sequence of CDK7/Cyclin H/MNAT1 (P50613 whole entry): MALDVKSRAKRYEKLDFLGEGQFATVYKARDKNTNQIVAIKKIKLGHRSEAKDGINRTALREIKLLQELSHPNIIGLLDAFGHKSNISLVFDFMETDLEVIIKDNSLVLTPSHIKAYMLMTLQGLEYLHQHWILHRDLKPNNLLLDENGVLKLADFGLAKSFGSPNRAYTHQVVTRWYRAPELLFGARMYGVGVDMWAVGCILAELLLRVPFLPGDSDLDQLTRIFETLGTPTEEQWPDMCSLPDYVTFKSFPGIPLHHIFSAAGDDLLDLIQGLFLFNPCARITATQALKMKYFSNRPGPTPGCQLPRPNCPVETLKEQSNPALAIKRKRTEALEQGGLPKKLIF
Sequence of CDK7/Cyclin H/MNAT1 (P51946 whole entry partner): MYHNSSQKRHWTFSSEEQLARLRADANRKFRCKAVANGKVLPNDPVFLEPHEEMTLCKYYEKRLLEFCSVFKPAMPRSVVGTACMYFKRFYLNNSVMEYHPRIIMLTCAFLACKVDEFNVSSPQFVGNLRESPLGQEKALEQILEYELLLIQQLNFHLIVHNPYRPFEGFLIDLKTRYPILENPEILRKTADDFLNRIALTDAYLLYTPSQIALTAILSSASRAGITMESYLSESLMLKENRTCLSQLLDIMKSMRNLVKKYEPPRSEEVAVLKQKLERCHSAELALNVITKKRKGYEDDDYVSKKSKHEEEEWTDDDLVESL
Sequence of CDK7/Cyclin H/MNAT1 (P51948 whole entry partner): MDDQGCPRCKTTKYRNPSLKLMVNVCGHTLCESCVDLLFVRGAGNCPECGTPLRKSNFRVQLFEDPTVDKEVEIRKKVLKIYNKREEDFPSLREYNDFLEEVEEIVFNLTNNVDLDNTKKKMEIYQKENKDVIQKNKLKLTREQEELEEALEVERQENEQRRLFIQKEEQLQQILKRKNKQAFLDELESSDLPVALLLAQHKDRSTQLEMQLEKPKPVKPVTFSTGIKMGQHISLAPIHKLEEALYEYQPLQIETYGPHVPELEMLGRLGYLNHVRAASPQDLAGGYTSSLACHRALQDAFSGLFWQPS
Sequence of CDK9/Cyclin K (P50750 whole entry): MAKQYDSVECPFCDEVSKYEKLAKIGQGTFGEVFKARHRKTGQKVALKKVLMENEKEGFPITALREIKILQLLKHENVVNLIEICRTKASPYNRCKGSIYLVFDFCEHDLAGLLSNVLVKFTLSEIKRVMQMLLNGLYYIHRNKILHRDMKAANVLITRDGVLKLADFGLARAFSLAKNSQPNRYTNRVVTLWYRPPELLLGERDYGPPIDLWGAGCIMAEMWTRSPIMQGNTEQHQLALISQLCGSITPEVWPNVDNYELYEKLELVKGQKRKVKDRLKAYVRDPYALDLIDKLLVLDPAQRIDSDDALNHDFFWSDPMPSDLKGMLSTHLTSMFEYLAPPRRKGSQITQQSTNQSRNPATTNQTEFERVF
Sequence of CDK9/Cyclin K (O75909 whole entry partner): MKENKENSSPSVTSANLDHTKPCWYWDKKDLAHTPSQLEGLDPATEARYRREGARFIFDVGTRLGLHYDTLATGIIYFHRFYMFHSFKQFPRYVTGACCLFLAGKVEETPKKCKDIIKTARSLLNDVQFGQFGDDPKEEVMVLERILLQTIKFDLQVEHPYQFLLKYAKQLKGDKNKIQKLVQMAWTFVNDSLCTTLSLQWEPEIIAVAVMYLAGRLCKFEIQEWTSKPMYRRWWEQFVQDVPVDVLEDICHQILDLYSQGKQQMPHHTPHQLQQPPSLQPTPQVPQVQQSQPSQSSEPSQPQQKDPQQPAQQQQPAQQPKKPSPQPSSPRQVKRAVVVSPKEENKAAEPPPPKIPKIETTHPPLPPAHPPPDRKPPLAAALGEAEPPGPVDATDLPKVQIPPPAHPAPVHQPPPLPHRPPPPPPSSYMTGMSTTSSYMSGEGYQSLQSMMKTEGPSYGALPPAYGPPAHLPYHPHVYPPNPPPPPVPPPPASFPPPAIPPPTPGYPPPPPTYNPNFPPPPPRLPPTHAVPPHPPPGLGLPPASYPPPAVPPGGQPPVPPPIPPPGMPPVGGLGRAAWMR

SMILES	Papp at 20 h, 10 μmol [1]	IC50 [2]	IC50 (CDK9/Cyclin K; [5])	IC50 (CDK7/Cyclin H/MNAT1; [6])	IC50 [3]	IC50 (CDK2/Cyclin A; [7])	IC50 (CDK9/Cyclin K; mean of multiple measurement series, ATP 50 μM, read-out: CDK9/Cyclin K IC50)	IC50 (CDK7/Cyclin H/MNAT1; mean of multiple measurement series, ATP 10 μM, read-out: CDK7/Cyclin H/MNAT1 IC50)	IC50 (CDK2/Cyclin A; mean of multiple measurement series, ATP 50 μM, read-out: CDK2/Cyclin A IC50)	CC50 at 72 h [4]
CC1(C)CC[C@H](Nc2ncc(C(F)(F)F)c(-c3c[nH]c4c3CCCN(C3CCCC3)C4=O)n2)CN1 [CDK7_1154, 7-cyclopentyl-3-(2-{[(3S)-6,6-dimethylpiperidin-3-yl]amino}-5-(trifluoromethyl)py-rimidin-4-yl)-1H,4H,5H,6H,7H, 8H-pyrrolo[2,3-c]azepin-8-one]	5 to 10 ×10⁻⁶ cm/s	10 to 100 nM	> 200 nM	< 5 nM	10 to 100 nM	> 200 nM				> 2000 nM
O=C1NCCc2c(-c3nc(N[C@H]4CCCNC4)ncc3C(F)(F)F)c[nH]c21 [CDK7_814, 3-(2-{[(3S)-piperidin-3-yl]amino}-5-(trifluoromethyl)pyrimidin-4-yl)-1H,4H,5H,6H, 7H-pyrrolo[2,3-c]pyridin-7-one]	< 1 ×10⁻⁶ cm/s	10 to 100 nM	50 to 200 nM	< 5 nM	10 to 100 nM	> 200 nM				500 to 2000 nM
CC1(C)CC[C@H](Nc2ncc(C(F)(F)F)c(-c3c[nH]c4c3CCCN(C3CCC3)C4=O)n2)CN1 [CDK7_1226, 7-cyclobutyl-3-(2-{[(3S)-6,6-dimethylpiperidin-3-yl]amino}-5-(trifluoromethyl)py-rimidin-4-yl)-1H,4H,5H,6H,7H, 8H-pyrrolo[2,3-c]azepin-8-one]	1 to 5 ×10⁻⁶ cm/s	10 to 100 nM	> 200 nM	< 5 nM	10 to 100 nM	> 200 nM	760 nM	5.6 nM	18600 nM	> 2000 nM
CN1CC=Cc2c(-c3nc(N[C@H]4CCCNC4)ncc3C(F)(F)F)c[nH]c2C1=O [CDK7_929]	< 1 ×10⁻⁶ cm/s	< 10 nM	5 to 50 nM	< 5 nM	< 10 nM	> 200 nM				100 to 500 nM
CC1(C)CC[C@H](Nc2ncc(C(F)(F)F)c(-c3c[nH]c4c3CCCN(CC3CCCC3)C4=O)n2)CN1 [CDK7_1155, 7-(cyclopentylmeth-yl)-3-(2-{[(3S)-6,6-dimethylpiperidin-3-yl]amino}-5-(trifluoromethyl)py-rimidin-4-yl)-1H,4H,5H,6H,7H, 8H-pyrrolo[2,3-c]azepin-8-one]	5 to 10 ×10⁻⁶ cm/s	10 to 100 nM	> 200 nM	5 to 50 nM	10 to 100 nM	> 200 nM				> 2000 nM
O=c1c2[nH]cc(-c3nc(N[C@H]4CCCNC4)ncc3C(F)(F)F)c2ccn1C1CC1 [CDK7_1105, 6-cyclopropyl-3-(2-{[(3S)-piperidin-3-yl]amino}-5-(trifluoromethyl)py-rimidin-4-yl)-1H,6H,7H-pyrrolo[2,3-c]pyridin-7-one]	< 1 ×10⁻⁶ cm/s	10 to 100 nM	5 to 50 nM	< 5 nM	< 10 nM	> 200 nM				100 to 500 nM
CN(C)C(=O)c1cc(-c2nc(N[C@H]3CCCNC3)ncc2C(F)(F)F)cn1C [CDK7_1017, N,N,1-trimethyl-4-(2-{[(3S)-piperidin-3-yl]amino}-5-(trifluoromethyl)py-rimidin-4-yl)-1H-pyrrole-2-carboxamide]	1 to 5 ×10⁻⁶ cm/s	> 1000 nM	50 to 200 nM	5 to 50 nM	100 to 1000 nM	> 200 nM				> 2000 nM

Now from value to compound, other results behind:

Papp at 20 h, 10 μmol [1]	IC50 [2]	IC50 (CDK9/Cyclin K; [5])	IC50 (CDK7/Cyclin H/MNAT1; [6])	IC50 [3]	IC50 (CDK2/Cyclin A; [7])	IC50 (CDK9/Cyclin K; mean of multiple measurement series, ATP 50 μM, read-out: CDK9/Cyclin K IC50)	IC50 (CDK7/Cyclin H/MNAT1; mean of multiple measurement series, ATP 10 μM, read-out: CDK7/Cyclin H/MNAT1 IC50)	IC50 (CDK2/Cyclin A; mean of multiple measurement series, ATP 50 μM, read-out: CDK2/Cyclin A IC50)	SMILES	CC50 at 72 h [4]
< 1 ×10⁻⁶ cm/s	100 to 1000 nM	5 to 50 nM	< 5 nM	10 to 100 nM	> 200 nM				Cn1nnnc1-c1cc(-c2nc(N[C@H]3CCCNC3)ncc2C(F)(F)F)c[nH]1 [CDK7_999, 4-[5-(1-methyl-1H-1,2,3,4-tetrazol-5-yl)-1H-pyrrol-3-yl]-N-[(3S)-piperidin-3-yl]-5-(trifluoromethyl) pyrimidin-2-amine]	500 to 2000 nM
1 to 5 ×10⁻⁶ cm/s	10 to 100 nM	5 to 50 nM	5 to 50 nM	10 to 100 nM	> 200 nM				FC(F)(F)c1cnc(N[C@H]2CCCNC2)nc1-c1c[nH]c(-c2nnnn2C2CC2)c1 [CDK7_1102]	500 to 2000 nM
1 to 5 ×10⁻⁶ cm/s	10 to 100 nM	5 to 50 nM	5 to 50 nM	10 to 100 nM					FC(F)(F)c1cnc(N[C@H]2CCCNC2)nc1-c1c[nH]c(-c2ccccn2)c1 [CDK7_1061, N-[(3S)-piperidin-3-yl]-4-[5-(pyridin-2-yl)-1H-pyrrol-3-yl]-5-(trifluoromethyl)py-rimidin-2-amine]	500 to 2000 nM
< 1 ×10⁻⁶ cm/s	< 10 nM	5 to 50 nM	< 5 nM	< 10 nM	> 200 nM				Cn1ccc2c(-c3nc(N[C@H]4CCCNC4)ncc3C(F)(F)F)c[nH]c2c1=O [CDK7_845, 6-methyl-3-(2-{[(3S)-piperidin-3-yl]amino}-5-(trifluoromethyl)pyrimidin-4-yl)-1H,6H,7H-pyrrolo[2,3-c]pyridin-7-one]	100 to 500 nM
5 to 10 ×10⁻⁶ cm/s	10 to 100 nM	5 to 50 nM	< 5 nM	10 to 100 nM	> 200 nM				Cc1nc(-c2cc(-c3nc(N[C@H]4CCCNC4)ncc3C(F)(F)F)c[nH]2)no1 [CDK7_1060, 4-[5-(5-methyl-1,2,4-oxadiazol-3-yl)-1H-pyrrol-3-yl]-N-[(3S)-piperidin-3-yl]-5-(trifluoromethyl)py-rimidin-2-amine]	100 to 500 nM
	10 to 100 nM	5 to 50 nM	< 5 nM	10 to 100 nM	> 200 nM				FC(F)(F)c1cnc(N[C@H]2CCCNC2)nc1-c1c[nH]c(-c2ncccn2)c1 [CDK7_1062, N-[(3S)-piperidin-3-yl]-4-[5-(pyrimidin-2-yl)-1H-pyrrol-3-yl]-5-(trifluoromethyl)py-rimidin-2-amine]	100 to 500 nM
